Assay results published in ChEMBL document CHEMBL3817844 (Medchemcomm, 2016).
pEC50, pIC50: −log10 of the molar value.

Experiments:
[1] = test system: Schistosoma mansoni; assay: Antischistosomal activity against newly transformed Schistosoma mansoni BH assessed as decrease in viability after 72 hrs by resazurin-based spectrophotometric assay; format: functional, organism-based
[2] = test system: Schistosoma mansoni; assay: Antischistosomal activity against adult female Schistosoma mansoni BH derived from infected Swiss mouse assessed as reduction in motility measured immediately after treatment by automated image-based analysis; format: functional, organism-based
[3] = test system: Schistosoma mansoni; assay: Antischistosomal activity against adult female Schistosoma mansoni BH derived from infected Swiss mouse assessed as reduction in motility measured after 24 hrs by automated image-based analysis; format: functional, organism-based
[4] = test system: Schistosoma mansoni; assay: Antischistosomal activity against adult female Schistosoma mansoni BH derived from infected Swiss mouse assessed as reduction in motility measured after 48 hrs by automated image-based analysis; format: functional, organism-based
[5] = test system: Schistosoma mansoni; assay: Antischistosomal activity against adult female Schistosoma mansoni BH derived from infected Swiss mouse assessed as reduction in motility measured after 72 hrs by automated image-based analysis; format: functional, organism-based
[6] = test system: Schistosoma mansoni; assay: Antischistosomal activity against adult male Schistosoma mansoni BH derived from infected Swiss mouse assessed as reduction in motility measured immediately after treatment by automated image-based analysis; format: functional, organism-based
[7] = test system: Schistosoma mansoni; assay: Antischistosomal activity against adult male Schistosoma mansoni BH derived from infected Swiss mouse assessed as reduction in motility measured after 24 hrs by automated image-based analysis; format: functional, organism-based
[8] = test system: Schistosoma mansoni; assay: Antischistosomal activity against adult male Schistosoma mansoni BH derived from infected Swiss mouse assessed as reduction in motility measured after 48 hrs by automated image-based analysis; format: functional, organism-based
[9] = test system: Schistosoma mansoni; assay: Antischistosomal activity against adult male Schistosoma mansoni BH derived from infected Swiss mouse assessed as reduction in motility measured after 72 hrs by automated image-based analysis; format: functional, organism-based
[10] = Inhibition of Schistosoma mansoni SERT

| Compound | pIC50 [1] | pEC50 [2] | pEC50 [3] | pEC50 [4] | pEC50 [5] | pEC50 [6] | pEC50 [7] | pEC50 [8] | pEC50 [9] | pIC50 [10] |
| --- | --- | --- | --- | --- | --- | --- | --- | --- | --- | --- |
| Fc1ccc([C@@H]2CCNC[C@H]2COc2ccc3c(c2)OCO3)cc1 [PAROXETINE] | 5.60 | 4.76 | 5.00 | 4.94 | 4.92 | 4.63 | 5.29 | 5.42 | 5.57 | 7.05 |
| O=C(C1CCCCC1)N1CC(=O)N2CCc3ccccc3C2C1 (stereo unspecified) [PRAZIQUANTEL] | – | 6.89 | 6.52 | – | 6.18 | 6.96 | 6.92 | 6.89 | – | – |
